Measurements as given in US10568892B2, “Cycloartane tetracyclic triterpenoid compound, preparation method therefor and use thereof” (Hefei Cosource Pharmaceuticals Inc., priority 2016, dated 2020).
Read-outs that look alike come from different tables or passages of the source. Marks after values point to notes of the source that are not given here.

How the values were obtained:
[1] = Pharmacokinetics in SD rats; assay type: in vivo, rat; conditions: rat, in vivo
Procedure: Method: twelve SD male rats were divided into four groups: 2 mg/kg of Compound 369 or cyclovirobuxine D was single dose through the intravenous injection or intragastrical administration, respectively. In the intravenous and intragastrical groups, blood samples (about 0.3 Ml) were collected from the posterior orbital venous plexus pro-dose and 0.25 h, 0.5 h, 1 h, 2 h, 4 h, 6 h, 8 h, and 12 h post-dose. The concentrations of Compound 369 and cyclovirobuxine D in plasma samples were determined by LC-MS/MS, and the pharmacokinetic parameters were calculated by DAS.3.0 software.

[2] = system: ventricular papillary muscle cell of guinea pig; experiment: Action potential of the ventricular papillary muscle cell of guinea pig (electrophysiological recording); assay type: cell-based; conditions: for percent change in action potential duration at 0.0005 µM / percent change in action potential duration at 0.005 µM / percent change in action potential duration at 0.05 µM: Cavia porcellus, 20 min, read-out: APD, Change rate (%); for APD50, Pre-administration / APD90, Pre-administration: baseline; for Effect on the APD value of the action potential of the papillary muscle (in words): Table 3 summary
Procedure: Method: One guinea pig was taken to violently hit the back of the brain such that it fainted. The common carotid artery was cut off for bleeding to kill the guinea pig. The chest was incised to expose the heart, and the ventricle was cut open along the interventricular septum to expose the lumen of the left ventricle. The papillary muscles were quickly taken out and placed in a Kreb's solution saturated with O2 (mixed gas of 95% O2 and 5% CO2) at 0° C. After the microscopic dressing, the papillary muscle specimen was fixed with a stainless steel needle on the silicone rubber at the bottom of the perfusion bath, and perfused with the oxygen-saturated Kreb's solution. The relevant parameters for perfusion: the temperature was 37±0.5° C., and the flow rate was 4 mL/min.
Cellular action potentials were recorded using a conventional electrophysiological method. The glass electrode filled with 3M KCl saturated solution and having a tip resistance of 15-30 MΩ was fixed on the microelectrode manipulator MP-2. The glass electrode was gently inserted into the superficial layer of the prepared papillary muscle specimen using a microelectrode pusher. The electrode was adjusted to provide the predetermined bioelectrical stimulation with the triple-channel SEN-7203 electronic stimulator and SS-202 J isolator. The bioelectrical signal was amplified by the MEZ-8301 amplifier and then input to the computerized electrophysiological recording and analysis system Powerlab 4/25. Subsequently, the relevant parameters of the action potential for the ventricular papillary muscle were analyzed through the analysis system. The relevant parameters for electrical stimulation: 30 ms latency, 7 ms wavewidth, 1 Hz frequency, 52.1 my stimulation intensity.
In the compound screening test stage, after the ventricular papillary muscle specimen of the guinea pig was fixed, it was first perfused with a normal Kreb's solution for about 85 minutes for stabilization, and the relevant parameters of the cellular action potential before administration were recorded at about 80 min after the start of perfusion. The three-limb tube was used to convert the perfusates containing the title compounds. The title compounds were continuously perfused for about 25 min successively with low (0.0005 μM), medium (0.005 μM), and high (0.05 μM) concentrations, respectively. At about 20 min after the start of drug perfusions at different concentrations, the relevant parameters of the action potentials for the ventricular papillary muscle of guinea pig were observed and recorded, respectively. The normal Kreb's solution was used to perfuse and elute for about 25 min during the intervals between drug perfusions at different concentrations.
The experiment was divided into the following five groups with 6 animals in each group: a vehicle control group, a 369 low dose (0.0005 μM) group, a 369 medium dose (0.005 μM) group, a 369 high dose (0.05 μM) group, and an amiodarone (10 μM) positive control group. After the ventricular papillary muscle specimen of the guinea pig was fixed, it was first perfused with a normal Kreb's solution for about 85 minutes for stabilization, and the relevant parameters of the cellular action potential before administration were recorded at about 80 min after the start of perfusion. According to groups, the three-limb tube was configured to convert the perfusates containing the vehicle, positive control, or Compound 369 at the corresponding concentrations to continuously perfuse for about 25 min. At about 20 min after the start of the perfusions, the relevant parameters of the action potentials for the ventricular papillary muscle of guinea pig were observed and recorded.

## CN[C@H]1CC[C@]23C[C@]24CC[C@]2(C)C(C(C)=O)=CC[C@@]2(C)[C@@H]4CC[C@H]3C1(C)C [Compound 369, (3β,5α)-4,4,14-trimethyl-3-(methylamino)-9,19-cyclopregnan-16-en-20-one]
[1]; male, SD, 2 mg/kg
  F: 35%
[1]; male, SD, iv, 2 mg/kg
  AUC(0-t): 249 ng·h/mL
  Cmax: 103 ng/mL
  Tmax: 0.25 h
  half-life: 4.1 h
[1]; male, SD, po, 2 mg/kg
  AUC(0-t): 84.6 ng·h/mL
  Cmax: 11.4 ng/mL
  Tmax: 5 h
  half-life: 3.5 h
[1]
  Exposures in plasma (AUC and Cmax values) vs cyclovirobuxine D (in words): slightly lower than that of cyclovirobuxine D
  Half-life (T1/2) vs cyclovirobuxine D (in words): significantly shorter than that of cyclovirobuxine D
[2]; 0.0005 μM, 0.005 μM and 0.05 μM, concentration-dependent
  Effect on APD, APD50 and APD90 (in words): can prolong APD, APD50 and APD90
[2]; n = 6, x ± SD, 0.0005 μM
  percent change in action potential duration at 0.0005 µM: 43.6%
  APD50, Change rate (%): 49.41% ± 16.99%
  APD50, Post-administration: 0.0572 ± 0.0247^a
  APD90, Change rate (%): 44.30% ± 17.58%^b
  APD90, Post-administration: 0.0795 ± 0.0260^a
  APD, Post-administration: 0.0930 ± 0.0246^a
[2]; n = 6, x ± SD, 0.005 μM
  percent change in action potential duration at 0.005 µM: 43.5%
  APD50, Change rate (%): 47.25% ± 28.78%
  APD50, Post-administration: 0.0610 ± 0.0342^a
  APD90, Change rate (%): 40.25% ± 24.21%^b
  APD90, Post-administration: 0.0838 ± 0.0345^a
  APD, Post-administration: 0.1023 ± 0.0365^a
[2]; n = 6, x ± SD, 0.05 μM
  percent change in action potential duration at 0.05 µM: 66.5%
  APD50, Change rate (%): 101.63% ± 62.10%^b
  APD50, Post-administration: 0.0764 ± 0.0270^a
  APD90, Change rate (%): 70.81% ± 46.76%^b
  APD90, Post-administration: 0.1006 ± 0.0242^a
  APD, Post-administration: 0.1199 ± 0.0235^a
[2]; screening stage, 0.0005 μM
  percent change in action potential duration at 0.0005 µM: 26.8%
[2]; screening stage, 0.005 μM
  percent change in action potential duration at 0.005 µM: 47.9%
[2]; screening stage, 0.05 μM
  percent change in action potential duration at 0.05 µM: 65.7%
[2]; n = 6, x ± SD, 0.0005 μM group
  APD50, Pre-administration: 0.0365 ± 0.0183
  APD90, Pre-administration: 0.0537 ± 0.0235
[2]; n = 6, x ± SD, 0.005 μM group
  APD50, Pre-administration: 0.0428 ± 0.0244
  APD90, Pre-administration: 0.0604 ± 0.0243
[2]; n = 6, x ± SD, 0.05 μM group
  APD50, Pre-administration: 0.0385 ± 0.0090
  APD90, Pre-administration: 0.0603 ± 0.0103
[2]; screening stage
  Effect on the APD value of the action potential of the papillary muscle (in words): the strongest effect
[2]; screening stage, listed as Example 1
  Effect on the APD value of the action potential of the papillary muscle (in words): a certain degree of prolonged effects
[2]; screening stage, 0.0005 μM, about 20 min perfusion
  APD, Post-administration: 0.0912
[2]; screening stage, 0.005 μM, about 20 min perfusion
  APD, Post-administration: 0.1031
[2]; screening stage, 0.05 μM, about 20 min perfusion
  APD, Post-administration: 0.1168
